Measurements reported in PubChem BioAssay AID328 (DTP/NCI, 2004).
Values joined by “and” are separate entries in the source; they are usually repeats but may differ in a detail not shown here. Identical values can stand only once. Inconclusive results and toxic doses are left out. The calls were made as follows: active = survival T/C of 150% or more; inactive = T/C below 125% in these data.

System: BDF1 mice, P388 leukemia ip, median survival T/C
Assay: NCI In Vivo Anticancer Drug Screen. Data for tumor model P388 Leukemia (intraperitoneal) in B6D2F1 (BDF1) mice
Conditions: endpoint: median survival time, higher = longer survival
Outline: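 In tumour-bearing mice, survival after compound treatment is set against the vehicle group and given as a quotient.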

[1] = dose: 100.0 mg/kg/injection, schedule: Q01DX009 (ip), vehicle: saline with Tween-80
[2] = dose: 200.0 mg/kg/injection, schedule: Q01DX009 (ip), vehicle: saline with Tween-80
[3] = dose: 100.0 mg/kg/injection, schedule: Q04DX003 (ip), vehicle: Klucel (hydroxypropylcellulose) (HPC)
[4] = dose: 50.0 mg/kg/injection, schedule: Q01DX009 (ip), vehicle: saline with Tween-80
[5] = dose: 100.0 mg/kg/injection, schedule: Q01DX009 (ip), vehicle: Klucel (hydroxypropylcellulose) (HPC)
[6] = dose: 200.0 mg/kg/injection, schedule: Q01DX009 (ip), vehicle: Klucel (hydroxypropylcellulose) (HPC)

Measured: T/C

O=C(O)CCC1(c2ccccc2)CCCC1=O (stereo not drawn)
inactive: dose: 0.39 mg/kg/injection, schedule: Q01DX009 (ip), vehicle: water 95 % of control | dose: 0.39 mg/kg/injection, schedule: Q04DX003 (ip), vehicle: water 104 % of control | dose: 0.78 mg/kg/injection, schedule: Q01DX009 (ip), vehicle: water 87 % of control and 122 % of control | dose: 0.78 mg/kg/injection, schedule: Q04DX003 (ip), vehicle: water 100 % of control | dose: 1.56 mg/kg/injection, schedule: Q01DX009 (ip), vehicle: water 101 % of control and 103 % of control | dose: 1.56 mg/kg/injection, schedule: Q04DX003 (ip), vehicle: water 97 % of control | dose: 3.12 mg/kg/injection, schedule: Q01DX009 (ip), vehicle: water 88 % of control | dose: 3.12 mg/kg/injection, schedule: Q04DX003 (ip), vehicle: water 97 % of control | dose: 6.25 mg/kg/injection, schedule: Q01DX009 (ip), vehicle: water 87 % of control and 101 % of control | dose: 12.5 mg/kg/injection, schedule: Q01DX009 (ip), vehicle: water 97 % of control | dose: 50.0 mg/kg/injection, schedule: Q01DX009 (ip), vehicle: water 87 % of control

C[C@@H]1CC2=CC(=O)CC[C@]2(C)[C@H]2CC[C@]3(C)[C@@H](O)CC[C@H]3[C@H]12
inactive: [1] 100 % of control | dose: 100.0 mg/kg/injection, schedule: Q04DX003 (ip), vehicle: saline with Tween-80 100 % of control | [2] 95 % of control | dose: 200.0 mg/kg/injection, schedule: Q04DX003 (ip), vehicle: saline with Tween-80 109 % of control | dose: 400.0 mg/kg/injection, schedule: Q01DX009 (ip), vehicle: saline with Tween-80 90 % of control | dose: 400.0 mg/kg/injection, schedule: Q04DX003 (ip), vehicle: saline with Tween-80 95 % of control

O=C1C=CC(=Nc2ccc3c(c2)C(Br)c2ccccc2-3)O1 (stereo not drawn)
inactive: dose: 2.25 mg/kg/injection, schedule: Q01DX009 (ip), vehicle: saline 100 % of control | dose: 4.5 mg/kg/injection, schedule: Q01DX009 (ip), vehicle: saline 100 % of control | dose: 9.0 mg/kg/injection, schedule: Q01DX009 (ip), vehicle: saline 100 % of control | dose: 13.0 mg/kg/injection, schedule: Q01DX009 (ip), vehicle: saline 105 % of control | dose: 20.0 mg/kg/injection, schedule: Q01DX009 (ip), vehicle: saline 100 % of control | dose: 30.0 mg/kg/injection, schedule: Q01DX009 (ip), vehicle: saline 120 % of control | dose: 95.0 mg/kg/injection, schedule: Q04DX003 (ip), vehicle: saline 109 % of control | dose: 145.0 mg/kg/injection, schedule: Q04DX003 (ip), vehicle: saline 118 % of control

Cc1cc(N2CCCCC2)nc(N2CCCCC2)c1C#N
inactive: dose: 50.0 mg/kg/injection, schedule: Q01DX005 (ip), vehicle: saline with Tween-80 86 % of control | dose: 100.0 mg/kg/injection, schedule: Q01DX005 (ip), vehicle: saline with Tween-80 86 % of control | dose: 200.0 mg/kg/injection, schedule: Q01DX005 (ip), vehicle: saline with Tween-80 96 % of control

O=C(NOCc1cc2c(cc1Cl)OCO2)c1ccc(S(=O)(=O)F)cc1
inactive: dose: 100.0 mg/kg/injection, schedule: Q01DX001 (ip), vehicle: saline sonified 104 % of control | dose: 200.0 mg/kg/injection, schedule: Q01DX001 (ip), vehicle: saline sonified 86 % of control | dose: 400.0 mg/kg/injection, schedule: Q01DX001 (ip), vehicle: saline sonified 86 % of control

Cc1ccc(NCC(O)CN2CCOCC2)cc1 (stereo not drawn)
inactive: [3] 108 % of control

O=[N+]([O-])c1cccc2c1ccc[n+]2Cc1ccccc1
inactive: dose: 12.5 mg/kg/injection, schedule: Q01DX009 (ip), vehicle: saline with Tween-80 112 % of control | dose: 25.0 mg/kg/injection, schedule: Q01DX009 (ip), vehicle: saline with Tween-80 115 % of control | [4] 122 % of control

N#CS/C=C\C(N)=O
inactive: dose: 1.5 mg/kg/injection, schedule: Q01DX009 (ip), vehicle: Klucel (hydroxypropylcellulose) (HPC) 100 % of control | dose: 1.5 mg/kg/injection, schedule: Q04DX003 (ip), vehicle: Klucel (hydroxypropylcellulose) (HPC) 95 % of control | dose: 3.0 mg/kg/injection, schedule: Q01DX009 (ip), vehicle: Klucel (hydroxypropylcellulose) (HPC) 91 % of control | dose: 3.0 mg/kg/injection, schedule: Q04DX003 (ip), vehicle: Klucel (hydroxypropylcellulose) (HPC) 95 % of control | dose: 6.0 mg/kg/injection, schedule: Q01DX009 (ip), vehicle: Klucel (hydroxypropylcellulose) (HPC) 89 % of control and 91 % of control | dose: 6.0 mg/kg/injection, schedule: Q04DX003 (ip), vehicle: Klucel (hydroxypropylcellulose) (HPC) 100 % of control | dose: 6.25 mg/kg/injection, schedule: Q04DX003 (ip), vehicle: Klucel (hydroxypropylcellulose) (HPC) 90 % of control | dose: 12.5 mg/kg/injection, schedule: Q04DX003 (ip), vehicle: Klucel (hydroxypropylcellulose) (HPC) 100 % of control

ClCc1ccc(CCl)cc1
inactive: dose: 7.03 mg/kg/injection, schedule: Q01DX009 (ip), vehicle: Klucel (hydroxypropylcellulose) (HPC) 110 % of control

CCSC(C(O)C(O)C(O)C(O)CO)n1ccc(=O)[nH]c1=O (stereo not drawn)
inactive: dose: 12.5 mg/kg/injection, schedule: Q01DX001 (ip), vehicle: saline 100 % of control | dose: 25.0 mg/kg/injection, schedule: Q01DX001 (ip), vehicle: saline 100 % of control | dose: 50.0 mg/kg/injection, schedule: Q01DX001 (ip), vehicle: saline 100 % of control

CCOc1ccn(CC(=O)c2ccc([N+](=O)[O-])o2)c(=O)n1
inactive: [4] 100 % of control | [1] 101 % of control

Cc1nc2c(sc(=N)n2-c2ccccc2)c(=O)[nH]1
inactive: [4] 114 % of control

N#CCCCCNC(=O)C1CCC(=O)N1 (stereo not drawn)
inactive: dose: 100.0 mg/kg/injection, schedule: Q04DX003 (ip), vehicle: saline 111 % of control | dose: 400.0 mg/kg/injection, schedule: Q04DX003 (ip), vehicle: saline 111 % of control

O=[N+]([O-])c1ccc(S(=O)c2ccc([N+](=O)[O-])cc2)cc1
inactive: [5] 100 % of control | [3] 100 % of control | [6] 95 % of control | dose: 200.0 mg/kg/injection, schedule: Q04DX003 (ip), vehicle: Klucel (hydroxypropylcellulose) (HPC) 100 % of control | dose: 400.0 mg/kg/injection, schedule: Q04DX003 (ip), vehicle: Klucel (hydroxypropylcellulose) (HPC) 100 % of control

COC(=O)C1C(O)C(C)C(O)C(C)(O)C=C(C)C2=C3C(=C(C)C(=O)c4c(O)c(c(C)c(OC(C)=O)c43)NC(=O)C(C)=C/C=C\C(C)(O)C(O)C(C)C1O)OCO2 (stereo not drawn)
inactive: dose: 50.0 mg/kg/injection, schedule: Q01DX009 (ip), vehicle: Klucel (hydroxypropylcellulose) (HPC) 119 % of control | [5] 110 % of control | [6] 116 % of control

CC1(C)CC(=O)C2=C(C1)OC1=C(C(=O)CC(C)(C)C1)C2c1cccc([N+](=O)[O-])c1
inactive: [4] 104 % of control | [1] 123 % of control | [2] 106 % of control

N#C[S-].N#C[S-].[NH-]CC[NH-].[Pt+4]
inactive: dose: 10.0 mg/kg/injection, schedule: Q01DX009 (ip), vehicle: saline with Tween-80 113 % of control | dose: 10.0 mg/kg/injection, schedule: Q04DX003 (ip), vehicle: saline with Tween-80 104 % of control | dose: 20.0 mg/kg/injection, schedule: Q04DX003 (ip), vehicle: saline with Tween-80 100 % of control | dose: 26.4 mg/kg/injection, schedule: Q01DX009 (ip), vehicle: saline with Tween-80 90 % of control | dose: 40.0 mg/kg/injection, schedule: Q01DX009 (ip), vehicle: saline with Tween-80 90 % of control | dose: 40.0 mg/kg/injection, schedule: Q04DX003 (ip), vehicle: saline with Tween-80 86 % of control | dose: 60.0 mg/kg/injection, schedule: Q01DX009 (ip), vehicle: saline with Tween-80 118 % of control

O=C1CC(SC(=S)C2CCCC2=O)C(=O)N1 (stereo not drawn)
inactive: [4] 100 % of control | [1] 110 % of control | [2] 89 % of control
